Test results from ChEMBL document CHEMBL3272271, “Folate antagonists. 13. 2,4-Diamino-6-](alpha,alpha,alpha-trifluoro-m-tolyl)thio]quinazoline and related 2,4-diamino-6-[(phenyl- and naphthyl)thio]quinazolines, a unique class of antimetabolites with extraordinary antimalarial and antibacterial effects” (J Med Chem, 1978).
In brackets after ≈: the same amount, converted by molar mass. Activity calls are given as the source filed them. The rule behind the calls is not given here.

Columns and labels:
[1] = system: Plasmodium gallinaceum; experiment: Antimalarial activity against trophozoite-induced Plasmodium gallinaceum infected in white leghorn chicken assessed as disease cure from parasite infection at 320 mg/kg, sc administered 72 hrs after infection; format: functional, organism-based; set-up: dose 320 mg/kg
[2] = system: Plasmodium gallinaceum; experiment: Antimalarial activity against trophozoite-induced Plasmodium gallinaceum infected in white leghorn chicken assessed as disease cure from parasite infection at 160 mg/kg, sc administered 72 hrs after infection; format: functional, organism-based; set-up: dose 160 mg/kg
[3] = system: Plasmodium falciparum; experiment: Antimalarial activity against chloroquine-susceptible, pyrimethamine-resistant Plasmodium falciparum Malayan Camp infected in Aotus trivirgatus owl monkey model assessed as cure from parasite infection at >2.5 mg/kg, po qd for 7 days relative to control; format: functional
[4] = system: Plasmodium falciparum; experiment: Antimalarial activity against pyrimethamine-sensitive Plasmodium falciparum Vietnam Oak Knoll infected in Aotus trivirgatus owl monkey model assessed as cure from parasite infection at 0.098 to 1.56 mg/kg, po qd for 7 days relative to control; format: functional; details: dose mg/kg 0.098-1.56
[5] = system: Plasmodium falciparum; experiment: Antimalarial activity against pyrimethamine-sensitive Plasmodium falciparum Vietnam Oak Knoll infected in Aotus trivirgatus owl monkey model assessed as cure from parasite infection at 0.6 mg/kg, po qd for 7 days relative to control; format: functional
[6] = system: Enterococcus faecalis; experiment: Antibacterial activity against Streptococcus faecalis MGH-2 by gradient plate test; format: functional
[7] = system: Staphylococcus aureus; experiment: Antibacterial activity against Staphylococcus aureus UC-96 by gradient plate test; format: functional
[8] = system: Staphylococcus aureus; experiment: Antibacterial activity against drug-resistant Staphylococcus aureus S18713 by gradient plate test; format: functional
[9] = system: Pseudomonas aeruginosa; experiment: Antibacterial activity against Pseudomonas aeruginosa 28 by gradient plate test; format: functional
[10] = system: Escherichia coli; experiment: Antibacterial activity against Escherichia coli Vogel by gradient plate test; format: functional
[11] = system: Shigella sonnei; experiment: Antibacterial activity against Shigella sonnei C-10 by gradient plate test; format: functional
[12] = system: Plasmodium gallinaceum; experiment: Antimalarial activity against sporozoite-induced Plasmodium gallinaceum infected in white leghorn chicken assessed as disease cure from parasite infection at 320 mg/kg, sc administered 72 hrs after infection; format: functional, organism-based; set-up: dose 320 mg/kg
[13] = system: Plasmodium gallinaceum; experiment: Antimalarial activity against sporozoite-induced Plasmodium gallinaceum infected in white leghorn chicken assessed as increase in mean survival days of host at 320 mg/kg, sc administered 72 hrs after infection relative to control; format: functional; details: route subcutaneous
[14] = system: Plasmodium gallinaceum; experiment: Antimalarial activity against sporozoite-induced Plasmodium gallinaceum infected in white leghorn chicken assessed as disease cure from parasite infection at 160 mg/kg, sc administered 72 hrs after infection; format: functional, organism-based; set-up: dose 160 mg/kg
[15] = system: Plasmodium gallinaceum; experiment: Antimalarial activity against sporozoite-induced Plasmodium gallinaceum infected in white leghorn chicken assessed as increase in mean survival days of host at 80 mg/kg, sc administered 72 hrs after infection relative to control; format: functional; details: route subcutaneous
[16] = system: Plasmodium gallinaceum; experiment: Antimalarial activity against sporozoite-induced Plasmodium gallinaceum infected in white leghorn chicken assessed as disease cure from parasite infection at 80 mg/kg, sc administered 72 hrs after infection; format: functional, organism-based; set-up: dose 80 mg/kg
[17] = system: Plasmodium berghei; experiment: Antimalarial activity against Plasmodium berghei infected in mouse assessed as increase in mean survival days of host at 80 mg/kg, sc administered 72 hrs after infection relative to control; format: functional; details: route subcutaneous
[18] = system: Plasmodium berghei; experiment: Antimalarial activity against Plasmodium berghei infected in mouse assessed as increase in mean survival days of host at 40 mg/kg, sc administered 72 hrs after infection relative to control; format: functional; details: route subcutaneous
[19] = system: Plasmodium berghei; experiment: Antimalarial activity against Plasmodium berghei infected in mouse assessed as increase in mean survival days of host at 20 mg/kg, sc administered 72 hrs after infection relative to control; format: functional; details: route subcutaneous
[20] = system: Plasmodium berghei; experiment: Antimalarial activity against Plasmodium berghei infected in mouse assessed as increase in mean survival days of host at 10 mg/kg, sc administered 72 hrs after infection relative to control; format: functional; details: route subcutaneous
[21] = system: Plasmodium berghei; experiment: Antimalarial activity against chloroquine-resistant Plasmodium berghei assessed as drug resistance; format: functional, organism-based
[22] = system: Plasmodium berghei; experiment: Antimalarial activity against cycloguanil-resistant Plasmodium berghei assessed as drug resistance; format: functional, organism-based
[23] = system: Plasmodium falciparum; experiment: Antimalarial activity against chloroquine-susceptible, pyrimethamine-resistant Plasmodium falciparum Malayan Camp infected in Aotus trivirgatus owl monkey model assessed as cure from parasite infection at 0.39 to 5 mg/kg, po qd for 7 days relative to control; format: functional; details: dose mg/kg 0.39-5
[24] = system: Plasmodium berghei; experiment: Antimalarial activity against Plasmodium berghei infected in mouse assessed as increase in mean survival days of host at 5 mg/kg, sc administered 72 hrs after infection relative to control; format: functional; details: route subcutaneous
[25] = system: Plasmodium berghei; experiment: Antimalarial activity against Plasmodium berghei infected in mouse assessed as increase in mean survival days of host at 2.5 mg/kg, sc administered 72 hrs after infection relative to control; format: functional; details: route subcutaneous
[26] = system: Plasmodium berghei; experiment: Antimalarial activity against Plasmodium berghei infected in mouse assessed as increase in mean survival days of host at 1.25 mg/kg, sc administered 72 hrs after infection relative to control; format: functional; details: route subcutaneous
[27] = system: Plasmodium berghei; experiment: Antimalarial activity against Plasmodium berghei infected in mouse assessed as disease cure from parasite infection at 640 mg/kg, sc administered 72 hrs after infection; format: functional, organism-based; set-up: dose 640 mg/kg
[28] = system: Plasmodium berghei; experiment: Antimalarial activity against Plasmodium berghei infected in mouse assessed as disease cure from parasite infection at 320 mg/kg, sc administered 72 hrs after infection; format: functional, organism-based; set-up: dose 320 mg/kg
[29] = system: Plasmodium berghei; experiment: Antimalarial activity against Plasmodium berghei infected in mouse assessed as disease cure from parasite infection at 160 mg/kg, sc administered 72 hrs after infection; format: functional, organism-based; set-up: dose 160 mg/kg
[30] = system: Plasmodium berghei; experiment: Antimalarial activity against Plasmodium berghei infected in mouse assessed as disease cure from parasite infection at 80 mg/kg, sc administered 72 hrs after infection; format: functional, organism-based; set-up: dose 80 mg/kg
[31] = system: Plasmodium berghei; experiment: Antimalarial activity against Plasmodium berghei infected in mouse assessed as disease cure from parasite infection at 40 mg/kg, sc administered 72 hrs after infection; format: functional, organism-based; set-up: dose 40 mg/kg
[32] = system: Plasmodium berghei; experiment: Antimalarial activity against trophozoite-induced Plasmodium berghei infected in mouse assessed as daily dose required to suppression of 90% parasite infection administered with diet for 6 days; format: functional
[33] = system: Plasmodium berghei; experiment: Ratio of quinine hydrochloride SD90 to compound SD90 for trophozoite-induced Plasmodium berghei infected in mouse assessed as daily dose required to suppression of 90% parasite infection administered with diet for 6 days; format: functional
[34] = system: Plasmodium gallinaceum; experiment: Antimalarial activity against trophozoite-induced Plasmodium gallinaceum infected in white leghorn chicken assessed as increase in mean survival days of host at 160 mg/kg, sc administered 72 hrs after infection relative to control; format: functional; details: route subcutaneous
[35] = system: Plasmodium gallinaceum; experiment: Antimalarial activity against trophozoite-induced Plasmodium gallinaceum infected in white leghorn chicken assessed as increase in mean survival days of host at 80 mg/kg, sc administered 72 hrs after infection relative to control; format: functional; details: route subcutaneous

Structure (SMILES): Nc1nc(N)c2cc(Sc3ccc(Cl)cc3)ccc2n1
- Activity [1]: Active
- Activity [2]: Active
- Activity [3]: >50%
- Activity [4]: >50%
- Activity [5]: >50%
- MIC [6]: < 0.25 µg/mL
- MIC [7]: < 0.25 µg/mL
- MIC [8]: < 0.25 µg/mL
- MIC [9]: > 25 µg/mL
- MIC [10]: 1 µg/mL (≈ 3.3 µM)
- MIC [11]: 5 µg/mL (≈ 16.5 µM)
- Activity [12]: Active
- MST [13]: 1.9 days
- Activity [14]: Active
- MST [15]: 17.9 days
- Activity [16]: Active
- MST [17]: 25.8 days
- MST [18]: 13.1 days
- MST [19]: 9.2 days
- MST [20]: 9.2 days
- Activity [21]: inactive
- Activity [22]: Active
- Activity [23]: >50%
- MST [24]: 6 days
- MST [25]: 2.5 days
- MST [26]: 1.7 days
- Activity [27]: Active
- Activity [28]: Active
- Activity [29]: Active
- Activity [30]: Active
- Activity [31]: Active
- SD90 [32]: 0.22 mg/kg/day
- Ratio [33]: 340
- MST [34]: 22.2 days
- MST [35]: 16.7 days
